Test results: publication PMC6362118, “Pharmacophore-guided discovery of CDC25 inhibitors causing cell cycle arrest and tumor regression” (Scientific Reports, 2019)

Assays:
CDC25A = target: T1, CDC25A (Homo sapiens, UniProt P30304); assay: Enzymatic assay (OMFP substrate) on recombinant CDC25A; format: biochemical; conditions: for remaining activity at 20 µM: read-out: % remaining activity ± SD (Table S2, second round of selection); for IC50: dose-response on recombinant CDC25A
T1 construct: GST (pGEX vector) (N); made in house; host or cells: E. coli BL21
T1 sequence (P30304 1-524): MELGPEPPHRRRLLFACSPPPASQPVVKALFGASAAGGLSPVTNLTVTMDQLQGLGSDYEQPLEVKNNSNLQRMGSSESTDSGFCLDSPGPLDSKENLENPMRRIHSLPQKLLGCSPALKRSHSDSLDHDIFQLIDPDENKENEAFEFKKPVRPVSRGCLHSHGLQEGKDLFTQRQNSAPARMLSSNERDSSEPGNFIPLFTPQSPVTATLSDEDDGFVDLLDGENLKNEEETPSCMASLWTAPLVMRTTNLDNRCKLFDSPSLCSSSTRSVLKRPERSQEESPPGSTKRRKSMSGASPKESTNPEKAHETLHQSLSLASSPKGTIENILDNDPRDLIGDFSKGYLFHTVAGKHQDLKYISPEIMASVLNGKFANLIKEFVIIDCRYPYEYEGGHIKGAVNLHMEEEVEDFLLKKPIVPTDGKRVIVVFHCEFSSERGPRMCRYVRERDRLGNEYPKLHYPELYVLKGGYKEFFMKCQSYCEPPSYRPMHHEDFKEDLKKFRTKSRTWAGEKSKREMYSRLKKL
Description: 57 UPD compounds were dissolved in DMSO at 10 mM stock concentration and stored in
60 Expression and purification of CDC25 phosphatases - CDC25A (kind gift of I.
61 Hoffmann, Heidelberg, Germany), CDC25B and CDC25C (kind gift of B. Gabrielli,
62 Queensland, Australia) in pGEX were expressed in E. coli BL21 cells and purified on 1
63 ml Glutathione Sepharose 4 Fast Flow columns as described 1.
65 Enzymatic assays - CDC25A, CDC25B and CDC25C were appropriately diluted in 10
66 mM Tris-HCl pH 8.0, 50 mM NaCl and assayed in 20 mM Tris-HCl pH 8.0, 75 mM
67 NaCl, 0.5 mM EGTA, 1 mM DTT, 0.1 mg/ml BSA and defined concentrations of
68 compounds. Reactions were started by addition of the substrate OMFP (0.1 mM). Assays
69 were carried out at room temperature in duplicate or triplicate using transparent-bottom,
70 V-shaped 96 well plates and read at defined intervals on a Molecular Devices
71 SpectraMax microplate reader (ex: 490 nm / em: 525 nm). IC50 and kinetic parameters
72 calculated from Lineweaver-Burk double-reciprocal plots of the data were obtained using
73 GraphPad Prism software. […]

HeLa cells [1] = assay: Cell viability assay on HeLa cells; format: cell-based; conditions: Homo sapiens, 48h treatment
Description: 75 Cell culture - Wild-type HeLa and Kyoto HeLa cells stably expressing mCherry-H2B
76 were maintained in DMEM+L-Glutamine (Gibco, Life Technologies, USA)
77 supplemented with 5% fetal calf serum (FCS) (Gibco) and penicillin-streptomycin (100
78 U/ml - 100 µg/ml) (Gibco). […]
87 Cell viability assays - Compounds viability upon 48h treatment with the compounds was
88 assessed as described 4. Data were plotted with Prism 7® and analyzed by non-linear
89 regression. Comparison of single curve fitting to all data set within an experiment was
90 performed with the extra sum-of-squares F-test to determine P values. […]

HeLa cells [2] = assay: Flow cytometric analysis of cell cycle progression (DNA content) in HeLa cells; format: cell-based; conditions: for effect on cell cycle distribution (DNA content): asynchronous HeLa cells, 10 μM, 15 h; for effect on the G1/S transition: HeLa synchronized at G2/M, 10 μM added in mid-G1, analysed 12 h post-release
Description: Reactions were started by addition of the substrate OMFP (0.1 mM). Assays 69 were carried out at room temperature in duplicate or triplicate using transparent-bottom, 70 V-shaped 96 well plates and read at defined intervals on a Molecular Devices 71 SpectraMax microplate reader (ex: 490 nm / em: 525 nm). IC50 and kinetic parameters 72 calculated from Lineweaver-Burk double-reciprocal plots of the data were obtained using 73 GraphPad Prism software. 74 75 Cell culture - Wild-type HeLa and Kyoto HeLa cells stably expressing mCherry-H2B 76 were maintained in DMEM+L-Glutamine (Gibco, Life Technologies, USA) 77 supplemented with 5% fetal calf serum (FCS) (Gibco) and penicillin-streptomycin (100 […] A549 and Colo741 were grown and maintained like HeLa 79 cells but with 10% FCS. HCT116 were maintained in McCoy's medium supplemented 80 with 10% FCS and penicillin-streptomycin. U2OS-Tet-OFF cells expressing HA-CDC25 81 were grown and maintained in DMEM+L-Glutamine, 10% Tet-free FCS and penicillin- 82 streptomycin in the presence or the absence of 4 μg/ml tetracycline (Sigma, T7660). 83 84 Cell synchronization - Cell synchronization was performed by double thymidine block- 85 release protocol 2 or nocodazole treatment 3 and verified by flow cytometry. 86 87 Cell viability assays - Compounds viability upon 48h treatment with the compounds was 88 assessed as described 4. Data were plotted with Prism 7® and analyzed by non-linear 89 regression. Comparison of single curve fitting to all data set within an experiment was 90 performed with the extra sum-of-squares F-test to determine P values. 91 92 Western blotting - Cell lysis and immunoblot analysis were performed as previously 93 described 5. […] Cells were washed with PBS, resuspended […] To 100 quantify phosphorylation of CDK1 at Tyr15 and H2AX at S139, cells were harvested and 101 examined as described 6. Samples were measured on an AttuneTM NxT Cytometer 102 (ThermoFisher Scientific, Carlsbad, CA, USA) and data were analyzed with FlowJo® 103 software v10 (FlowJo, LLC, Ashland, OR, USA). 104 105 Real Time qRT-PCR - Organoids were lysed in Tri-Reagent (Sigma) as previously 106 described 7 and total RNA was isolated as described by manufacturer's instructions. For […] 108 High Fidelity cDNA Synthesis kit (Roche). Real-time quantitative PCR reactions were 109 performed in three independent biological replicates, each with technical triplicate, using 110 the Applied Biosystems SYBR Green Kit and monitored by the ABI Prism 7900HT 111 system (Applied Biosystem). The following primers were used: 112 Lgr5: Forward [NT] and Reverse 5'- […] 114 Lysozyme: Forward [NT] and Reverse 5'- 115 [NT]3' 116 Cryptdin: Forward [NT] and Reverse 5'- 117 [NT]-binding protein (TBP): Forward [NT] and 119 Reverse [NT] 120 […] 122 amplification curves and the melting temperature analysis of the final amplification […] 4

HCT116 tumors = assay: HCT116 tumor xenograft in zebrafish embryos; format: in vivo; conditions: 10 µM, 3 dpi
Description: Implantation of HCT116 cells into zebrafish embryos were carried out essentially as previously described. Briefly, HCT116 cells were cultured in McCoy’s medium supplemented with 10% FCS and penicillin/streptomycin until ~80% confluence, then labeled for 30 min at 37 °C in 6 μg/mL 1,1′-dioctadecyl-3,3,3′,3′-tetramethylindocarbocyanine perchlorate (DiI, Sigma) in PBS followed by washing 3x in PBS. Labeled cells were implanted in the perivitelline space of 48 hours post-fertilization (hpf) wildtype (AB) zebrafish embryos, kept from the 1-cell stage in 1-phenyl-2-thiourea (PTU)-containing E3-water. […] As control, embryos were incubated in PTU-E3 with 0.1% DMSO (vehicle). Tumor-bearing embryos were incubated at 36 °C for three days and the change in tumor volume was evaluated as the size of the tumors at three days post-implantation (3 dpi) relative to the size immediately after implantation (0 dpi). Metastasis was evaluated at 3 dpi as the number of tumor cells present in the caudal hematopoietic plexus, the main metastatic site for tumors implanted in the perivitelline space.

HeLa cells [3] = assay: Time-lapse microscopy of mitosis in synchronized HeLa cells; format: cell-based; conditions: synchronized HeLa Kyoto cells (mCherry-H2B, GFP-α-tubulin), 5 μM
Description: Cells were grown in 35 mm CellView™ cell culture dishes with glass bottom (# 627870, Greiner-BioOne) at a density of 2.5 × 10^5 cells/ml in a humidified cell incubator maintained at 37 °C and 5% CO2. Cell were viewed by phase contrast microscopy with a 10x objective using an Olympus IX 81 motorized inverted microscope (Olympus, Hamburg, Germany) equipped with external temperature control chamber and CO2 bottle to maintain cells at 37 °C with 5% CO2. Transition through mitosis was documented by acquisition of four frames per hour over a period of 14 h using a CCD camera (Orca AG, Hamamatsu) and cellR® software (Olympus). HeLa-Kyoto cells (mCherry-H2B/EGFP-α-tubulin) were visualized by fluorescence microscopy with an Olympus IX 81 microscope using a 10x objective and selecting Ex. = 492 ± 18 nm/Em. = 535 ± 50 nm for the green channel and Ex. = 572 ± 23 nm/Em. = 645 ± 75 nm for the red channel.

[4] = compound 20 µM, relative to DMSO control

Row | SMILES | remaining activity at 20 µM (CDC25A; [4]) [%] | effect on cell cycle distribution (DNA content) (HeLa cells [2]) | other results
1 | O=C(O)c1ccc2c(c1)C(=O)c1c(O)ccc(O)c1C2=O [UPD-724, 1,4-dihydroxy-6-anthraquinonecarboxylic acid] | 98.9 ± 1.4 | – | –
2 | O=C1C=C(N2CCCCC2)C(=O)c2c(O)cccc21 [UPD-797, 8-hydroxy-2-(piperidin-1-yl)naphthalene-1,4-dione] | 8.5 ± 0.1 | – | –
3 | Cc1ccc(SC2=CC(=O)c3cccc(O)c3C2=O)cc1 [UPD-793, 3-(p-tolylthio)juglone] | – | increase of the G1 population | effect on the G1/S transition (HeLa cells [2]): effectively blocked cells in G1; % remaining activity ± SD (Table S2, second round of selection) (CDC25A; [4]): 1.0 ± 0.1%; IC50 (CDC25A): 920 nM
4 | O=C1C=C(N2CCOCC2)C(=O)c2c(O)cccc21 [UPD-798, N-(5-hydroxy-1,4-naphthoquinon-3-yl)morpholine] | 41.4 ± 0.4 | – | –
5 | Nc1ccc(N)c2c1C(=O)C=CC2=O [UPD-1382, 5,8-diaminonaphthalene-1,4-dione] | 94.4 ± 0.6 | – | –
6 | O=C1C=CC(=O)c2c(O)cccc21 [UPD-738, 5-hydroxynaphtho-1,4-quinone] | 5.9 ± 0.1 | increase of the G1 population | metastasis (tumor cells in caudal hematopoietic plexus) (HCT116 tumors): did not appear to be significant; IC50 (HeLa cells [1]): 4400 nM; effect on the G1/S transition (HeLa cells [2]): effectively blocked cells in G1
7 | Cc1cc(O)c2c(n1)C(=O)C=CC2=O [UPD-1416, 4-Hydroxy-2-methylquinoline-5,8-dione] | 4.1 | – | –
8 | Cc1ccc2c(n1)C(=O)C=CC2=O [UPD-1419, 2-methyl-5,8-dihydro-5,8-dioxoquinoline] | 1.9 ± 0.3 | – | –

Continued, in another order:

Row | remaining activity at 20 µM (CDC25A; [4]) [%] | SMILES | effect on cell cycle distribution (DNA content) (HeLa cells [2]) | other results
9 | 0 | O=C1C=C(c2ccc(O)c(O)c2O)C(=O)c2c(O)cccc21 [UPD-786, 8-hydroxy-2-(2,3,4 trihydroxyphenyl) naphthalene-1,4-dione] | increase of the G1 population | IC50 (HeLa cells [1]): 6500 nM; IC50 (CDC25A): 890 nM
10 | 0 | O=C1C=C(c2ccc(O)c(O)c2O)C(=O)c2ccccc21 [UPD-596, 2-(2,3,4-trihydroxyphenyl)-1,4-naphthoquinone] | increase of the G1 population | effect on the G1/S transition (HeLa cells [2]): ineffective
11 | 70.1 ± 2 | O=C1C=C(c2c(O)cc(O)cc2O)C(=O)c2c(O)cccc21 [UPD-788, 8-hydroxy-2-(2,4,6-trihydroxyphenyl)naphthalene-1,4-dione] | – | –
12 | 3.1 ± 0.3 | O=C1C=C(c2ccc(O)cc2O)C(=O)c2ccccc21 [UPD-597, 2-(2,4-dihydroxyphenyl)-1,4-naphthoquinone] | – | –
13 | 5.6 ± 1.2 | COc1ccc(C2=CC(=O)c3cccc(O)c3C2=O)c(OC)c1 [UPD-790, 8-hydroxy-2-(2,4-dimethoxyphenyl)naphthalene-1,4-dione] | accumulation of cells at G2/M | IC50 (HeLa cells [1]): 1410 nM; execution of mitosis at low dose (time-lapse) (HeLa cells [3]): failed attempt to round up and execute mitosis, which was followed by membrane blebbing and death; effect on the G2/M transition (HeLa cells [2]; double-thymidine synchronized HeLa, 10 μM added 5 h upon release, analysed 12 h post-release): accretion of the G2/M peak
